Laboratory results taken from patent US20040053962A1, “Methods for inhibiting proliferation and inducing apoptosis in cancer cells” (priority 2003, published 2004).

Tests used:
[1] = test system: HPAF pancreatic cancer cell line; experiment: [3H]-thymidine incorporation (DNA synthesis), HPAF; format: cell-based; details: for proliferation (thymidine incorporation), % control / proliferation, % control (time course): mean±SEM
Method: (§1) Cell culture. The following pancreatic cancer cell lines were used: MiaPaCa-2 and PANC-1 (poorly-differentiated); Capan-1 and Capan-2 (well-differentiated); and HPAF and AsPC-1 (pleomorphic). These were purchased from American Type Culture Collection (Rockville, Md.). PANC-1 and MiaPaCa-2 were grown in DMEM media; HPAF and AsPC-1 were grown in MEM media; and Capan-1 and Capan-2 were grown in-McCoy's media. Media were supplemented with 10% FBS, and the cells were grown as monolayers in a humidified atmosphere of […] and 5% CO2 at 37° C. The cells were regularly seeded into 75 cm^2 flask with media changed every other day. For experiments, cells were grown to 80% confluence, digested with trypsin-EDTA, and plated either in 12 or 24-well plates at a concentration of 50,000/ml, as appropriate.
(§2) DNA synthesis by [^3H]-Thymidine incorporation. Cells were plated in 12 or 24-well plates. After reaching 70% confluence, they were incubated in serum-free media for 24 hours, which was then replaced with fresh serum-free media with or without the appropriate concentration of leukotriene B4 receptor antagonist LY293111 (62.5-1000 nM), LTB4 (100-400 nM), or both. After the appropriate period of culture, cellular DNA synthesis was assayed by adding 0.5 μCi/well of [^3H]-methyl-thymidine and incubating for another 2 hours. Then, the cells were washed twice with PBS, fixed with 10% trichloroacetic acid (“TCA”) for 30 minutes, and solubilized by adding 0.4 M NaOH to each well. Radioactivity, indicating incorporation of ^3H-thymidine into DNA, was measured by adding a scintillation cocktail and counting on a scintillation counter (LKB RackBeta, Wallac, Turku, Finland)

[2] = test system: AsPc-1 human pancreatic tumor cell line xenograft; experiment: AsPc-1 xenograft tumor growth in athymic mice; format: in vivo; details: 0.01% LY293111 in the drinking water, started four days after s.c. injection of 3 million AsPc-1 cells
Method: Athymic mice received a subcutaneous injection of 3 million cancer cells in 50 μl of serum-free media. The highly malignant and aggressive pancreatic tumor cell line, AsPc-1, was used in this experiment. The tumors were allowed to establish and grow for four days prior to treatment with 0.01% LY293111 in the drinking water.

MiaPaCa-2 cells = experiment: TUNEL assay (flow cytometry), MiaPaCa-2; format: cell-based; details: control 1.5%
Method: TUNEL assay. Apoptosis was measured by flow cytometry using a terminal deoxynucleotidyl transferase-mediated deoxyuridine triphosphate nick-end labeling (“TUNEL”) assay. Cells were treated with LY293111 for the appropriate period of time, then digested with trypsin-EDTA, washed with ice-cold PBS twice, and fixed in 10% paraformaldehyde on ice for 20 minutes. Cells were then washed with PBS, permeabilized with 70% ethanol for at least 4 hours, washed again with PBS and incubated with 2.5 units of terminal deoxynucleotidyl transferase (TdT enzyme) and 100 pmol Br-dUTP in DNA labeling solution for one hour at 37° C. Cells were then rinsed twice, resuspended in 0.1 ml fluorescein labeled anti-BrdU antibody solution in the dark for 30 minutes. Then 0.5 ml propidium iodide/RNase A solution was added, and the cells analyzed by flow cytometry at 488 nm excitation.

[3] = test system: PANC-1 pancreatic cancer cell line; experiment: [3H]-thymidine incorporation (DNA synthesis), PANC-1; format: cell-based; details: mean±SEM; for proliferation (thymidine incorporation), % control: 24 hours
Method: as §1, §2

[4] = test system: pancreatic cancer cell lines; experiment: Proliferation of pancreatic cancer cell lines (summary statement); format: cell-based
Method: as §1
DNA synthesis by [^3H]-Thymidine incorporation. Cells were plated in 12 or 24-well plates. After reaching 70% confluence, they were incubated in serum-free media for 24 hours, which was then replaced with fresh serum-free media with or without the appropriate concentration of leukotriene B4 receptor antagonist LY293111 (62.5-1000 nM), LTB4 (100-400 nM), or both. […] Radioactivity, indicating incorporation of ^3H-thymidine into DNA, was measured by adding a scintillation cocktail and counting on a scintillation counter (LKB RackBeta, Wallac, Turku, Finland)

[5] = test system: MiaPaCa-2 pancreatic cancer cells; experiment: Morphological changes by phase-contrast microscopy, MiaPaCa-2; format: cell-based; details: MiaPaCa-2, 250 nM, as early as 4 hours after treatment; interpreted as reflecting apoptosis
Method: Morphological changes using light microscope. Pancreatic cancer cells grown in 75 cm^2 flasks were treated with different concentrations of LY293111 for different periods of time. They were then viewed by phase-contrast microscopy, and photographs were taken.

[6] = test system: Capan-1 pancreatic cancer cell line; experiment: [3H]-thymidine incorporation (DNA synthesis), Capan-1; format: cell-based; details: mean±SEM; for proliferation (thymidine incorporation), % control: 24 hours
Method: as §1, §2

[7] = test system: AsPC-1 pancreatic cancer cell line; experiment: [3H]-thymidine incorporation (DNA synthesis), AsPC-1; format: cell-based, human; details: mean±SEM; for proliferation (thymidine incorporation), % control: 24 hours
Method: as §1, §2

[8] = test system: MiaPaCa-2 pancreatic cancer cell line; experiment: [3H]-thymidine incorporation (DNA synthesis), MiaPaCa-2; format: cell-based
Method: as §1, §2

[9] = test system: Bcl-2 in MCF-7 breast cancer cells; experiment: Bcl-2 expression by western blotting; format: cell-based; details: MCF-7, LY293111 500 nM
[10] = test system: Capan-2 pancreatic cancer cell line; experiment: [3H]-thymidine incorporation (DNA synthesis), Capan-2; format: cell-based; details: mean±SEM; for proliferation (thymidine incorporation), % control: 24 hours
Method: as §1, §2

With CCCc1c(OCCCOc2cc(O)c(-c3ccc(F)cc3)cc2CC)cccc1Oc1ccccc1C(=O)O [LY293111, 2-(2-propyl-3-(3-(2-ethyl-4-(4-fluorophenyl)-5-hydroxyphenoxy)propoxy)-phenoxy)benzoic acid] the decrease of proliferation ([1]; HPAF (FIG. 6B), LY293111 250 nM, 24 hours) was 50%, the “proliferation with combination of LTB4 and LY293111” value ([1]; HPAF, 250 nM LY293111 + 100 nM LTB4, 24 hours) was “restored to almost the control level” and the “proliferation (thymidine incorporation), % control” value ([1]; HPAF, LY293111 62.5 nM, 24 hours) was 103.6 ± 21.8 % control. The “proliferation (thymidine incorporation), % control” value ([1]; HPAF, LY293111 125 nM, 24 hours) was 97.6 ± 24.5 % control, the “proliferation (thymidine incorporation), % control” value ([1]; HPAF, LY293111 250 nM, 24 hours) was 49.3 ± 9.0 % control and the “proliferation, % control (time course)” value ([1]; HPAF, LY293111 500 nM, 6 h) was 67.5 ± 11.6 % control. The “proliferation, % control (time course)” value ([1]; HPAF, LY293111 500 nM, 12 h) was 35.7 ± 8.9 % control, the “proliferation, % control (time course)” value ([1]; HPAF, LY293111 500 nM, 24 h) was 12.4 ± 3.3 % control and the “proliferation (thymidine incorporation), % control” value ([1]; HPAF, LY293111 500 nM, 24 hours) was 10.3 ± 3.0 % control. The “proliferation (thymidine incorporation), % control” value ([1]; HPAF, LY293111 1000 nM, 24 hours) was 2.3 ± 1.4 % control, the “tumor size vs control group” value [2] was “smaller tumors” and the “apoptosis (TUNEL)” value (MiaPaCa-2 cells; MiaPaCa-2, 250 nM LY293111 for 24 hours) was 12.6%. For the same molecule, the “apoptosis (TUNEL)” value (MiaPaCa-2 cells; MiaPaCa-2, 500 nM LY293111 for 24 hours) was 18.6%, the “proliferation (thymidine incorporation), % control” value ([3]; PANC-1, LY293111 62.5 nM) was 89.4 ± 4.4 % control and the “proliferation (thymidine incorporation), % control” value ([3]; PANC-1, LY293111 125 nM) was 65.2 ± 3.8 % control. For the same molecule, the “proliferation, % control (time course)” value ([3]; PANC-1, LY293111 500 nM, 6 h) was 60.2 ± 6.5 % control, the “proliferation, % control (time course)” value ([3]; PANC-1, LY293111 500 nM, 12 h) was 48.9 ± 5.3 % control and the “proliferation, % control (time course)” value ([3]; PANC-1, LY293111 500 nM, 24 h) was 13.6 ± 1.0 % control. For the same molecule, the “proliferation (thymidine incorporation), % control” value ([3]; PANC-1, LY293111 500 nM) was 12.4 ± 3.1 % control, the “proliferation (thymidine incorporation), % control” value ([3]; PANC-1, LY293111 1000 nM) was 5.6 ± 1.0 % control and the inhibition at 0.25 µM ([4]; LY293111 250 nM) was ≥ 50%. For the same molecule, the inhibition at 1 µM ([4]; LY293111 1000 nM) was > 95%, the “morphological changes (phase-contrast microscopy)” value [5] was “marked morphological changes” and the “proliferation (thymidine incorporation), % control” value ([6]; Capan-1, LY293111 62.5 nM) was 99.1 ± 4.8 % control. The “proliferation (thymidine incorporation), % control” value ([6]; Capan-1, LY293111 125 nM) was 56.9 ± 4.9 % control, the “proliferation (thymidine incorporation), % control” value ([6]; Capan-1, LY293111 250 nM) was 16.4 ± 2.0 % control and the “proliferation, % control (time course)” value ([6]; Capan-1, LY293111 500 nM, 6 h) was 70.5 ± 8.7 % control. The “proliferation, % control (time course)” value ([6]; Capan-1, LY293111 500 nM, 12 h) was 44.5 ± 10.2 % control, the “proliferation, % control (time course)” value ([6]; Capan-1, LY293111 500 nM, 24 h) was 15.7 ± 3.4 % control and the “proliferation (thymidine incorporation), % control” value ([6]; Capan-1, LY293111 500 nM) was 15.7 ± 3.4 % control. The “proliferation (thymidine incorporation), % control” value ([6]; Capan-1, LY293111 1000 nM) was 0.2 ± 0.3 % control, the “proliferation (thymidine incorporation), % control” value ([7]; AsPC-1, LY293111 62.5 nM) was 90.6 ± 4.6 % control and the “proliferation (thymidine incorporation), % control” value ([7]; AsPC-1, LY293111 125 nM) was 72.8 ± 5.4 % control. The “proliferation (thymidine incorporation), % control” value ([7]; AsPC-1, LY293111 250 nM) was 44.5 ± 7.7 % control, the “proliferation, % control (time course)” value ([7]; AsPC-1, LY293111 500 nM, 6 h) was 65.8 ± 7.7 % control and the “proliferation, % control (time course)” value ([7]; AsPC-1, LY293111 500 nM, 12 h) was 44.7 ± 4.1 % control. The “proliferation, % control (time course)” value ([7]; AsPC-1, LY293111 500 nM, 24 h) was 16.7 ± 2.1 % control, the “proliferation (thymidine incorporation), % control” value ([7]; AsPC-1, LY293111 500 nM) was 18.4 ± 6.9 % control and the “proliferation (thymidine incorporation), % control” value ([7]; AsPC-1, LY293111 1000 nM) was 7.3 ± 1.2 % control. For the same molecule, the decrease of proliferation ([8]; MiaPaCa-2 (FIG. 6A), LY293111 250 nM, 24 hours) was 50%, the “proliferation with combination of LTB4 and LY293111” value ([8]; MiaPaCa-2, 250 nM LY293111 + 100 nM LTB4, 24 hours) was “restored to almost the control level” and the “effect on thymidine incorporation” value ([8]; MiaPaCa-2, concentration-dependent (FIG. 1A, P<0.0001) and time-dependent (FIG. 1B, P<0.0001)) was “inhibition of thymidine incorporation”. The “Bcl-2 expression (western blot)” value [9] was “inhibited expression”, the “proliferation (thymidine incorporation), % control” value ([10]; Capan-2, LY293111 62.5 nM) was 95.4 ± 8.7 % control and the “proliferation (thymidine incorporation), % control” value ([10]; Capan-2, LY293111 125 nM) was 67.3 ± 6.8 % control. For the same molecule, the “proliferation (thymidine incorporation), % control” value ([10]; Capan-2, LY293111 250 nM) was 51.2 ± 5.8 % control, the “proliferation, % control (time course)” value ([10]; Capan-2, LY293111 500 nM, 6 h) was 57.8 ± 4.3 % control and the “proliferation, % control (time course)” value ([10]; Capan-2, LY293111 500 nM, 12 h) was 32.1 ± 5.6 % control. For the same molecule, the “proliferation, % control (time course)” value ([10]; Capan-2, LY293111 500 nM, 24 h) was 10.9 ± 6.0 % control, the “proliferation (thymidine incorporation), % control” value ([10]; Capan-2, LY293111 500 nM) was 15.8 ± 9.6 % control and the “proliferation (thymidine incorporation), % control” value ([10]; Capan-2, LY293111 1000 nM) was 8.9 ± 2.1 % control.
